Experimental findings from US10712339B2, “Engineering of a novel breast tumor microenvironment on a microfluidic chip” (Arizona Board of Regents on behalf of Arizona State …, priority 2014, dated 2020) are described below.

The subject of the assay is Endothelial cells (HUVECs). The text has this: To study vasculogenesis and to optimize the ECM composition for endothelial cell sprouting, we first developed a microfluidic model comprised of a single culture region surrounded by the media region. This device was selected to study endothelial growth without the interference of other cell types or the stroma. Since the media channel is in a different compartment from the cell culture region, it facilitated the development of a gradient of biomolecules. To encapsulate endothelial cells fibrin was chosen, as it is known to play a major role in regulating angiogenesis in 3D ECM. Endothelial cells (HUVECs) at a cell density of 20 million cells/ml were injected into the devices and growth and maturation of vascular networks were monitored over a culture period of 5 days. We introduced vascular endothelial growth factor (VEGF) in to the culture media and assessed the subsequent effects on vasculogenesis. VEGF is known as a major growth factor secreted during cancer progression which leads to formation of new blood vessels. […] We primarily compared the diameter and branching of vascular networks and further assessed the permeability of microvessels within each experimental condition.

On to VEGF, for which the permeability of microvessels result (VEGF in culture media vs No VEGF control) is on record as “higher permeability”. Besides, the “structure of endothelial networks” value (VEGF in culture media vs No VEGF control, 5 day culture) is reported as “impaired structurally”. Besides, for the setting “addition of VEGF, endothelial mono-culture in single layer platform”, the “diameter of the formed vascular networks” value was “reduced”. Further, the “endothelial cell morphology and intercellular connections” value (low and high VEGF conditions vs No VEGF control, from day 1) was “elongated morphology with intercellular connections”.
